Series [1] in a line: Acid dissociation constant, pKa1 of the compound in 0.1M KCl at pH 2.0 to 10.5 by UV absorption method. Type of series: physicochemical.
A short description of series [2]: Antioxidant activity assessed as trolox equivalent of ORAC radical scavenging activity at 8 uM. Type of series: functional.
Series [3] is described as follows: Log K3 of the compound in 0.1M KCl at pH 2.0 to 10.5 by UV absorption method. Type of series: physicochemical.
Series [4] in a line: Metal chelating activity assessed as Fe3+ chelation.
A short description of series [5]: Acid dissociation constant, pKa3 of the compound in 0.1M KCl at pH 2.0 to 10.5 by UV absorption method. The series is classed as physicochemical.
Series [6] in a line: Acid dissociation constant, pKa2 of the compound in 0.1M KCl at pH 2.0 to 10.5 by UV absorption method. Type of series: physicochemical.
The nature of series [7]: Antioxidant activity assessed as trolox equivalent of ORAC radical scavenging activity at 4 uM. Type of series: functional.
Series [8] can be described thus: Log K1 of the compound in 0.1M KCl at pH 0.9 to 2.1 by UV absorption method. Type of series: physicochemical.
Series [9] in a line: Antioxidant activity assessed as ABTS radical scavenging activity incubated in dark for 6 mins by absorbance based microplate reader analysis. The series is classed as functional.
Series [10] in a line: Log K2 of the compound in 0.1M KCl at pH 2.0 to 10.5 by UV absorption method. The series is classed as physicochemical.
Series [11] has as its system HT-22. The series can be described thus: Anti-ferroptotic activity against Erastin-induced ferroptosis in mouse HT-22 cells assessed as reduction in ROS accumulation at 100 uM measured after 24 hrs by DCFH-DA based flow cytometry analysis relative to control. Type of series: functional. On the set-up: scale not given: the % may be the effect or the level left. On the technique in general: In flow cytometry, cells or beads pass a laser one at a time.

Series [12] has as its system HT-22. The series can be described thus: Anti-ferroptotic activity in erastin-induced ferroptosis in mouse HT-22 cells assessed as cell viability incubated for 24 hrs by MTT assay. The series is classed as functional, cell-based. The note with it: HT-22, 24 h. A general note: Formazan colour is commonly taken as a measure of viable cells.
Series [13] deals with HT-22. The series can be described thus: Anti-ferroptotic activity against Erastin-induced ferroptosis in mouse HT-22 cells assessed as inhibition of LPO accumulation at 0.2 uM measured after 24 hrs by BODIPY-C11 based flow cytometry analysis relative to control. On the set-up: scale not given: the % may be the effect or the level left. Type of series: functional.
In series [14] the test system is HT-22. Description: Anti-ferroptotic activity against Erastin-induced ferroptosis in mouse HT-22 cells assessed as reduction in LIP level by measuring fluorescence intensity measured after 24 hrs by FeRhoNox-1 based flow cytometry analysis. The series is classed as functional, cell-based. The note with it: dose 20-100 µM.
For series [15], the system named is HEK-293T. The series can be described thus: Protection against cisplatin-induced cytotoxicity in HEK293T cells assessed as cell viability measured after 24 to 48 hrs by MTT assay. The series is classed as functional, cell-based. The note with it: Homo sapiens.
The subject of series [16] is HEK-293T. The series can be described thus: Protection against cisplatin-induced cytotoxicity in HEK293T cells assessed as reduction in attenuation of intracellular Fe2+ at 30 to 80 uM measured after 24 hrs by FeRhoNox-1 based flow cytometry analysis. Type of series: functional, cell-based. The note with it: Homo sapiens, dose 30-80 µM.
Another series deals with L02. Description: Cytotoxicity against human L02 cells assessed as reduction in cell viability at upto 100 uM by MTT assay. Type of series: toxicity, cell-based. The note with it: l02, 100 µM.
The subject of series [17] is HT-22. The series can be described thus: Cytotoxicity against mouse HT-22 cells assessed as reduction in cell viability at 150 uM by MTT assay relative to control. The note with it: ht-22, 150 µM. The series is classed as toxicity, cell-based.

Each structure is given as a SMILES string. Active and inactive are the calls of the source. The rule behind the calls is not given here. A value given as a limit tells only on which side of the number the result lay.

Usually pKa stands for the pH at which an ionisable group is half protonated. The term IC50 denotes the concentration needed to halve the response being measured. What is called EC50 is the midpoint of the concentration-response curve.

For `Cc1c(O)c(=O)ccn1NC(=O)/C=C/c1cccc(Cl)c1`, the pKa in [1] was 2.52; in series [5] it was 10.1; in [6] it was 6.66. The Activity was determined as 6.52 in series [2], 17.8 in series [4], 3.27 in [7] and 100% in the series with HT-22 [11]. Further, the figures for the “log(activity)” value in series [3], in [8] and in [10] were 35.28, 14.03 and 26.16, respectively. Moreover, in [9], the IC50 came out at 4.9 µM.

As to `CCOC(=O)c1ccc(NC2CCCCC2)c(N)c1`, the Activity was 9.43 in series [2], 100% in the series with HT-22 [13] and 6.53 in series [7]. For the same compound, the EC50 amounted to 0.191 µM in the series on HT-22 [12] and 5.69 µM in the series with HEK-293T [15]. In addition, the result in the series on HT-22 [14] was inactive. Besides, the IC50 in series [9] was 6.27 µM.

Turning to `Cc1c(O)c(=O)ccn1C` [DEFERIPRONE], the Activity in series [2] is 9.19; in series [4] it was 17.9; in the series with L02 it was “Non-Toxic”; in series [7] it was 4.73; in the series on HT-22 [17], greater than 80%. Besides, the “log(activity)” value in series [3] came out at 34.97; in [8], 14.12; in series [10], 25.8. Besides, the EC50 turned out to be 165 µM in the series on HT-22 [12] and 40 µM with HEK-293T [15]. In addition, in the series with HEK-293T [16], the result was Active. Moreover, in series [6], the pKa amounted to 9.93. In addition, in [9], the IC50 was 9.7 µM.

Take `Cc1c(O)c(=O)ccn1NC(=O)/C=C/c1ccccc1F`: the pKa in [1] amounted to 2.4; in [5] it was 10.3; in series [6], 6.74. Further, the Activity in series [2] was 24.9; in [4], 17.6; in series [7], 18.1; in the series with HT-22 [17], greater than 80%. The “log(activity)” value is given as 35.75 in series [3], 14.34 in series [8] and 26.41 in [10]. The EC50 with HT-22 [12] was found to be 25.8 µM. Further, the IC50 in [9] was found to be 4.38 µM.

Turning to `COc1cccc(/C=C/C(=O)Nn2ccc(=O)c(O)c2C)c1`, the values for the pKa in series [1], in [5] and in [6] were 2.4, 10.2 and 6.99, respectively. The Activity was 16.1 in series [2], 17.8 in series [4], 8.99 in series [7] and greater than 80% in the series on HT-22 [17]. In addition, the “log(activity)” value in series [3] worked out at 35.64; in series [8], 14.2; in series [10] it was 26.72. The EC50 in the series on HT-22 [12] stood at 26.2 µM. Moreover, the IC50 in [9] was found to be 4.78 µM.

With `COc1ccc(/C=C/C(=O)Nn2ccc(=O)c(O)c2C)c(OC)c1OC`, the pKa in [1] stood at 2.1; in series [5], 10.2; in series [6], 7.29. Besides, the Activity in series [2] is 14.8; in series [4], 17; in [7], 8.52; in the series on HT-22 [17], greater than 80%. Besides, the figures for the “log(activity)” value in series [3], in series [8] and in series [10] were 35, 13.72 and 25.73, respectively. Moreover, in the series on HT-22 [12], the EC50 worked out at 19.6 µM. In addition, the IC50 in series [9] was found to be 6.99 µM.

The values above are taken from ChEMBL document CHEMBL5537117, “Novel 3-hydroxypyridin-4(1H)-One derivatives as ferroptosis inhibitors with iron-chelating and reactive oxygen species scavenging activities and therapeutic effect in cisplatin-induced cytotoxicity” (Eur J Med Chem, 2024).
